Test results published in patent US20250345392A1, “ANNEXIN A1 LIQUID PHARMACEUTICAL COMPOSITION” (ResoTher Pharma A/S, priority 2022, published 2025).
Where two headings read alike, the source gives them in different places. Ends that are not written are not given here.

Test: 14-day repeat dose IV toxicity study with toxicokinetic evaluation on Day 1 and Day 14 in rats
Format: in vivo, Wistar rats
Details: rat; for C0 / AUC(0-inf) / half-life / clearance / Vd: in vivo
Experimental: Peptide 1 in blood samples collected from animals used in the studies (rat and dog) has been measured by an LC-MS/MS method. Analysis of samples collected in the pharmacokinetic study in rats was performed prior to validation of the method. Prior to analysis of samples from the GLP toxicology studies, the method was validated according to GLP to ensure that it is selective, accurate, reproducible, and able to produce reliable results. The method was validated over the range from 0.075 to 25 μg/mL Peptide 1.
In the 14-day intravenous toxicity study in Wistar rats (see study description below), samples were collected from 3 male and 3 female animals per group dosed at 0 (Control), 1, 3 or 10 mg/kg/day at 2, 5, 10, 20 and 40 minutes after dosing on Days 1 and 14. Samples were analysed for levels of Peptide 1.

[1] = iv, 1 mg/kg/day, IV 1.0 mg/kg/day, female, Day 1
[2] = iv, 1 mg/kg/day, IV 1.0 mg/kg/day, female, Day 14
[3] = iv, 1 mg/kg/day, IV 1.0 mg/kg/day, male, Day 1
[4] = iv, 1 mg/kg/day, IV 1.0 mg/kg/day, male, Day 14
[5] = iv, 3 mg/kg/day, IV 3.0 mg/kg/day, female, Day 1
[6] = iv, 3 mg/kg/day, IV 3.0 mg/kg/day, female, Day 14
[7] = iv, 3 mg/kg/day, IV 3.0 mg/kg/day, male, Day 1
[8] = iv, 3 mg/kg/day, IV 3.0 mg/kg/day, male, Day 14
[9] = iv, 10 mg/kg/day, IV 10 mg/kg/day, female, Day 1
[10] = iv, 10 mg/kg/day, IV 10 mg/kg/day, female, Day 14
[11] = iv, 10 mg/kg/day, IV 10 mg/kg/day, male, Day 1
[12] = iv, 10 mg/kg/day, IV 10 mg/kg/day, male, Day 14

Substance: AMVSEFLKQAWFIENEEQEYVQTLKSSKGGPGSAVSPYPTFNPSSDV-NH2 [Peptide 1]
- exposure (C(0) and AUCinf) versus dose (from 1 mg/kg to 10 mg/kg): increase proportional to dose level
- C0 (1 mg/kg, Group 2 (1 mg/kg), range over sexes and Days 1 and 14): 9.96 to 11.9 µg/mL
- AUC(0-inf) (1 mg/kg, Group 2 (1 mg/kg), range over sexes and Days 1 and 14, read-out: AUCinf): 0.918 to 1.03 µg·h/mL
- C0 (3 mg/kg, Group 3 (3 mg/kg), range over sexes and Days 1 and 14): 23 to 41.9 µg/mL
- AUC(0-inf) (3 mg/kg, Group 3 (3 mg/kg), range over sexes and Days 1 and 14, read-out: AUCinf): 2.28 to 3.38 µg·h/mL
- C0 (10 mg/kg, Group 4 (10 mg/kg), range over sexes and Days 1 and 14): 92.3 to 138 µg/mL
- AUC(0-inf) (10 mg/kg, Group 4 (10 mg/kg), range over sexes and Days 1 and 14, read-out: AUCinf): 9.13 to 10.1 µg·h/mL
- half-life (all groups, read-out: elimination half-life): 7 to 8 min
- C0 [1]: 11.9 µg/mL
- clearance [1]: 1.09 L/h/kg
- AUC(0-inf) (iv, 1 mg/kg/day, IV 1.0 mg/kg/day, female, Day 1, read-out: AUC0-∞ (converted)): 0.918 µg·h/mL
- half-life (iv, 1 mg/kg/day, IV 1.0 mg/kg/day, female, Day 1, read-out: T1/2): 7.33 min
- Vd (iv, 1 mg/kg/day, IV 1.0 mg/kg/day, female, Day 1, read-out: Vz): 0.192 L/kg
- C0 [2]: 10.9 µg/mL
- clearance [2]: 0.972 L/h/kg
- AUC(0-inf) (iv, 1 mg/kg/day, IV 1.0 mg/kg/day, female, Day 14, read-out: AUC0-∞ (converted)): 1.03 µg·h/mL
- half-life (iv, 1 mg/kg/day, IV 1.0 mg/kg/day, female, Day 14, read-out: T1/2): 7.11 min
- Vd (iv, 1 mg/kg/day, IV 1.0 mg/kg/day, female, Day 14, read-out: Vz): 0.167 L/kg
- C0 [3]: 9.96 µg/mL
- clearance [3]: 1.08 L/h/kg
- AUC(0-inf) (iv, 1 mg/kg/day, IV 1.0 mg/kg/day, male, Day 1, read-out: AUC0-∞ (converted)): 0.927 µg·h/mL
- half-life (iv, 1 mg/kg/day, IV 1.0 mg/kg/day, male, Day 1, read-out: T1/2): 8.4 min
- Vd (iv, 1 mg/kg/day, IV 1.0 mg/kg/day, male, Day 1, read-out: Vz): 0.218 L/kg
- C0 [4]: 10.3 µg/mL
- clearance [4]: 1.03 L/h/kg
- AUC(0-inf) (iv, 1 mg/kg/day, IV 1.0 mg/kg/day, male, Day 14, read-out: AUC0-∞ (converted)): 0.967 µg·h/mL
- half-life (iv, 1 mg/kg/day, IV 1.0 mg/kg/day, male, Day 14, read-out: T1/2): 7.66 min
- Vd (iv, 1 mg/kg/day, IV 1.0 mg/kg/day, male, Day 14, read-out: Vz): 0.19 L/kg
- C0 [5]: 30.6 µg/mL
- clearance [5]: 1.04 L/h/kg
- AUC(0-inf) (iv, 3 mg/kg/day, IV 3.0 mg/kg/day, female, Day 1, read-out: AUC0-∞ (converted)): 2.87 µg·h/mL
- half-life (iv, 3 mg/kg/day, IV 3.0 mg/kg/day, female, Day 1, read-out: T1/2): 8 min
- Vd (iv, 3 mg/kg/day, IV 3.0 mg/kg/day, female, Day 1, read-out: Vz): 0.201 L/kg
- C0 [6]: 41.9 µg/mL
- clearance [6]: 0.888 L/h/kg
- AUC(0-inf) (iv, 3 mg/kg/day, IV 3.0 mg/kg/day, female, Day 14, read-out: AUC0-∞ (converted)): 3.38 µg·h/mL
- half-life (iv, 3 mg/kg/day, IV 3.0 mg/kg/day, female, Day 14, read-out: T1/2): 6.85 min
- Vd (iv, 3 mg/kg/day, IV 3.0 mg/kg/day, female, Day 14, read-out: Vz): 0.146 L/kg
- C0 [7]: 23 µg/mL
- clearance [7]: 1.31 L/h/kg
- AUC(0-inf) (iv, 3 mg/kg/day, IV 3.0 mg/kg/day, male, Day 1, read-out: AUC0-∞ (converted)): 2.28 µg·h/mL
- half-life (iv, 3 mg/kg/day, IV 3.0 mg/kg/day, male, Day 1, read-out: T1/2): 7 min
- Vd (iv, 3 mg/kg/day, IV 3.0 mg/kg/day, male, Day 1, read-out: Vz): 0.221 L/kg
- C0 [8]: 36.7 µg/mL
- clearance [8]: 1.12 L/h/kg
- AUC(0-inf) (iv, 3 mg/kg/day, IV 3.0 mg/kg/day, male, Day 14, read-out: AUC0-∞ (converted)): 2.68 µg·h/mL
- half-life (iv, 3 mg/kg/day, IV 3.0 mg/kg/day, male, Day 14, read-out: T1/2): 6.67 min
- Vd (iv, 3 mg/kg/day, IV 3.0 mg/kg/day, male, Day 14, read-out: Vz): 0.18 L/kg
- C0 [9]: 127 µg/mL
- clearance [9]: 1.04 L/h/kg
- AUC(0-inf) (iv, 10 mg/kg/day, IV 10 mg/kg/day, female, Day 1, read-out: AUC0-∞ (converted)): 9.57 µg·h/mL
- half-life (iv, 10 mg/kg/day, IV 10 mg/kg/day, female, Day 1, read-out: T1/2): 7.16 min
- Vd (iv, 10 mg/kg/day, IV 10 mg/kg/day, female, Day 1, read-out: Vz): 0.18 L/kg
- C0 [10]: 138 µg/mL
- clearance [10]: 0.99 L/h/kg
- AUC(0-inf) (iv, 10 mg/kg/day, IV 10 mg/kg/day, female, Day 14, read-out: AUC0-∞ (converted)): 10.1 µg·h/mL
- half-life (iv, 10 mg/kg/day, IV 10 mg/kg/day, female, Day 14, read-out: T1/2): 7.04 min
- Vd (iv, 10 mg/kg/day, IV 10 mg/kg/day, female, Day 14, read-out: Vz): 0.168 L/kg
- C0 [11]: 104 µg/mL
- clearance [11]: 1.09 L/h/kg
- AUC(0-inf) (iv, 10 mg/kg/day, IV 10 mg/kg/day, male, Day 1, read-out: AUC0-∞ (converted)): 9.2 µg·h/mL
- half-life (iv, 10 mg/kg/day, IV 10 mg/kg/day, male, Day 1, read-out: T1/2): 7.8 min
- Vd (iv, 10 mg/kg/day, IV 10 mg/kg/day, male, Day 1, read-out: Vz): 0.204 L/kg
- C0 [12]: 92.3 µg/mL
- clearance [12]: 1.09 L/h/kg
- AUC(0-inf) (iv, 10 mg/kg/day, IV 10 mg/kg/day, male, Day 14, read-out: AUC0-∞ (converted)): 9.13 µg·h/mL
- half-life (iv, 10 mg/kg/day, IV 10 mg/kg/day, male, Day 14, read-out: T1/2): 7.31 min
- Vd (iv, 10 mg/kg/day, IV 10 mg/kg/day, male, Day 14, read-out: Vz): 0.192 L/kg
